Source: the SangsterLogP compilation

Compound `CCCC(=O)OCCOc1ccc2oc3cc(C(=O)O)ccc3c(=O)c2c1` has a logP of 4.
With `O=C(O)c1ccc2c(=O)c3cc([N+](=O)[O-])ccc3oc2c1` the logP was 3.12.
`COc1ccc2oc3cc(-c4nnn[nH]4)ccc3c(=O)c2c1` gave a logP of 3.15.
Work on `O=C(O)c1ccc2c(=O)c3cc(OCCOCCO)ccc3oc2c1` yielded a logP of 2.62.
`N#Cc1ccc2oc3ccc(-c4nnn[nH]4)cc3c(=O)c2c1` gave a logP of 2.52.
For `CC(O)COc1ccc2oc3cc(C(=O)O)ccc3c(=O)c2c1` (configuration not stated), the logP was 2.87.
`O=C(O)c1ccc2c(=O)c3cc(OCCO)ccc3oc2c1` gave a logP of 2.46.
`O=c1c2ccc(-c3nnn[nH]3)cc2oc2ccc([N+](=O)[O-])cc12` showed a logP of 2.83.
Compound `CCCc1ccc2oc3cc(C(=O)O)ccc3c(=O)c2c1` has a logP of 4.59.
For `CCSc1ccc2oc3cc(C(=O)O)ccc3c(=O)c2c1`, the logP was 4.36.
Compound `CCOc1ccc2oc3cc(C(=O)O)ccc3c(=O)c2c1` has a logP of 3.99.
For `COc1ccc2oc3cc(C(=O)O)ccc3c(=O)c2c1`, the logP was 3.37.
With `CCCCOc1ccc2oc3cc(-c4nnn[nH]4)ccc3c(=O)c2c1` the logP was 4.69.
Work on `CCOc1ccc2oc3cc(-c4nn[nH]n4)ccc3c(=O)c2c1` yielded a logP of 3.67.
`O=c1c2ccc(-c3nnn[nH]3)cc2oc2ccc(OCCO)cc12` showed a logP of 2.31.
Work on `CCSc1ccc2oc3cc(-c4nnn[nH]4)ccc3c(=O)c2c1` yielded a logP of 4.06.
`Nc1ccc2oc3cc(C(=O)O)ccc3c(=O)c2c1` gave a logP of 2.3.
With `Nc1ccc2oc3cc(-c4nnn[nH]4)ccc3c(=O)c2c1` the logP was 2.18.
`CCCCOc1ccc2oc3cc(C(=O)O)ccc3c(=O)c2c1` gave a logP of 5.
Work on `COCc1ccc2oc3cc(C(=O)O)ccc3c(=O)c2c1` yielded a logP of 3.12.
Compound `CCCC(=O)OCCOc1ccc2oc3cc(-c4nnn[nH]4)ccc3c(=O)c2c1` has a logP of 3.73.
Work on `O=c1c2ccccc2oc2cc(-c3nn[nH]n3)ccc12` yielded a logP of 2.86.
